The record followed here is patent US4272630A, “D-Homosteroids” (priority 1979, dated 1981).

Assay [1] has as its system ear of male mice (oedema). Kind of assay: Mouse Ear Test (oedema inhibition, topical, croton oil). It is filed as in vivo. The conditions noted are these: dissolved in croton oil, applied 15 seconds under 600 g to right ear of male mice (25-30 g), 4 hours, read-out: Mouse Ear EC50 (concentration which gave a 50% oedema inhibition in comparison with a control group). On the procedure:
(§1) The tests carried out can be described as follows:
The D-homosteroids, dissolved in croton oil, were applied for 15 seconds under a pressure of 600 g to the right ear of male mice weighing 25-30 g. The left ear served as the control. Four hours later, the mice were killed, and tissue was removed with a punch from the same position on treated and untreated ears and weighed. The EC50, namely that concentration which gave a 50% oedema inhibition in comparison with a control group, was determined.

Assay [2] deals with granulomas in female rats. Kind of assay: Felt Pellet Test (granuloma reduction, oral). It counts as in vivo. Conditions: Rattus norvegicus, four successive days, female rats (90-110 g), removed on 5th day, read-out: Felt Pellet ED40 (dosage which gave a 40% reduction of the granulation weight). As for the experimental part:
as §1
Two felt pellets were implanted under the skin (scapula region) in female rats (90-110 g) under ether narcosis. The D-homosteroids were administered orally on four successive days commencing on the day of the implantation. On the 5th day, the rats were killed, and the granulomas which formed were removed, dried and weighed. The ED40, namely that dosage which gave a 40% reduction of the granulation weight, was determined.

≈ marks a conversion by molar mass, not a printed value.

Regarding `COC(=O)C1(OC(C)=O)C=CCC2C3CCC4=CC(=O)C=CC4(C)C3C(O)CC21C` [17aα-acetoxy-11β-hydroxy-3-oxo-D-homoandrosta-1,4,16-triene-17aβ-carboxylic acid methyl ester], in assay [1], the EC50 was 30 µg/mL (≈ 72.4 µM). In addition, the ED40 in assay [2] amounted to 6.4 mg/kg.

For `COC(=O)C1(OC(C)=O)C=CCC2C3CCC4=CC(=O)C=CC4(C)C3(F)C(O)CC21C` [17-acetoxy-9-fluoro-11β-hydroxy-3-oxo-D-homoandrosta-1,4,16-triene-17aβ-carboxylic acid methyl ester], the EC50 in assay [1] was determined as 10 µg/mL (≈ 23.1 µM). Moreover, in assay [2], the ED40 was 6 mg/kg.
